PMC5562778 (Archives of Toxicology, 2017)
Where two headings read alike, the source gives them in different places.

Experiments:
Chinese liver S9 = experiment: Oxidation of 1′-hydroxyestragole by Chinese liver S9 (NAD+, GSH trapping); format: in vitro ADME, human
Method: (§1) Mixed gender Chinese or Caucasian liver S9 was incubated with 1′-hydroxyestragole in the presence of NAD^+ and GSH, the latter added to trap the transient 1′-oxoestragole. Formation of the 1′-oxoestragole adducts with GSH forming GS-1′-oxoestragole reflects the formation of 1′-oxoestragole (Punt et al. [2009]). […] The reactions were terminated after 10 min by the addition of 25 μL ice-cold acetonitrile. Blank incubations were performed without cofactor NAD^+. All incubations were performed in triplicate.
(§2) Secondary metabolism of 1′-hydroxyestragole includes glucuronidation, oxidation, and sulfation. The gradient of analysis of the metabolites of 1′-hydroxyestragole can be found in supporting materials 2. Table S1 can be used to track more detailed information.
(§3) Identification of the GS-1′-oxoestragole which reflects the formation of 1′-oxoestragole was done by comparing the UV spectra and retention time of the formed GSH adduct to those of GS-1′-oxoestragole identified as described previously (Punt et al. [2009]). Quantification of the GSH conjugate of 1′-oxoestragole was achieved by comparing the peak area to the calibration curve of GS-1′-oxoestragole at a wavelength of 280 nm prepared as described previously by Punt et al. ([2009], [2016]). Briefly, the calibration curve of GS-1′-oxoestragole was prepared by incubating 40 μM 1′-oxoestragole with a range of GSH concentrations. The reactions were incubated for 4 h after which maximal formation of GS-1′-oxoestragole was previously shown to be reached (Punt et al. [2009]).
(§4) Mixed gender Chinese or Caucasian liver S9 was incubated with 1'-hydroxyestragole in the presence of NAD^+ and GSH, the latter added to trap the transient 1'-oxoestragole. Formation of the 1'-oxoestragole adducts with GSH forming GS-1'-oxoestragole reflects the formation of 1'-oxoestragole (Punt et al. 2009). […] The mixtures were pre-incubated for 1 min at 37 °C, after which the reactions were started by adding the substrate 1'-hydroxyestragole at concentrations ranging from 15 to 1000 μM added from 100 times concentrated stock solutions in DMSO. The reactions were terminated after 10 min by the addition of 25 μl ice-cold acetonitrile. Under these conditions, the formation of the GSH adduct of 1'-oxoestragole was linear with time and cytosolic protein concentration (Punt et al. 2009). Blank incubations were performed without cofactor NAD^+. All incubations were performed in triplicate.
(§5) The gradient for analysis of the metabolites contains a mixture of acetonitrile and 0.1 % TFA in ultrapure water with 0.6 ml/min flow rate.

Caucasian liver S9 = experiment: Oxidation of 1′-hydroxyestragole by Caucasian liver S9 (NAD+, GSH trapping); format: in vitro ADME, human
Method: as §1, §2, §3, §4, §5

Chinese liver microsomes = experiment: Microsomal conversion of estragole by Chinese liver microsomes (NADPH); conditions: for Catalytic efficiency (scaled V max / K m) / Scaled V max: formation from estragole, Chinese; for Scaled V max: scaled with microsomal protein yield 35 mg/(g tissue); for Catalytic efficiency (V max/K m × 1000) / K m / V max: formation of the metabolite from estragole, Chinese liver microsomes; for K m / V max: average ± SEM; for Catalytic efficiency for formation of the metabolite, lower in Chinese than in Caucasian samples / V max for formation of the metabolite, lower in Chinese than in Caucasian samples: in vitro, liver microsomes
Method: (§6) The incubation mixtures contained (final concentrations) 3 mM NADPH and 1 mg/mL microsomal protein in 0.2 M Tris–HCl (pH 7.4). Incubations were performed for 10 min at substrate concentrations ranging from 25 to 1000 μM, after which the reaction was terminated by adding 25 μL ice-cold acetonitrile. Blank incubations were performed in the absence of the cofactor NADPH. All incubations were performed in triplicate. In the supporting materials 2, detailed information can be found (Table S1 can be used to keep track of detailed information).
(§7) Before UPLC analysis, all samples were centrifuged for 5 min at 16,000 g to precipitate microsomal proteins. Supernatant of each sample was analyzed on UPLC using a BEH C18 (1.7 μm, 2.1 × 50 mm) column with a guard column and a diode array detector (Acquity, Waters). […] Table S1 can be used to keep track of detailed information.
(§8) The apparent maximum velocity (V max) and the apparent Michaelis–Menten constant (K m) were determined by fitting the data to this equation using GraphPad Prism version 5.0 (GraphPad software, San Diego California USA).
(§9) The incubation mixtures contained (final concentrations) 3 mM NADPH and 1 mg/ml microsomal protein in 0.2 M Tris-HCl (pH 7.4). […] Incubations were performed for 10 min at substrate concentrations ranging from 25 to 1000 μM, after which the reaction was terminated by adding 25 μl ice-cold acetonitrile. […] Blank incubations were performed in the absence of the cofactor NADPH. All incubations were performed in triplicate.
The flow rate was 0.6 ml/min and the gradient started with 100 % ultrapure water.

[1] = system: Caucasian liver microsomes; experiment: Microsomal conversion of estragole by Caucasian liver microsomes (NADPH); format: in vitro ADME, human; conditions: for Catalytic efficiency (scaled V max / K m) / Scaled V max: formation from estragole, Caucasian; for Catalytic efficiency (scaled V max / K m): scaled to liver; for Scaled V max: scaled with microsomal protein yield 35 mg/(g tissue); for Catalytic efficiency (V max/K m × 1000) / K m / V max: formation of the metabolite from estragole, Caucasian liver microsomes; for K m / V max: average ± SEM
Method: as §6
as §7, with “information. […] 3′-Hydroxyanethole was quantified by comparison of the peak areas of the metabolite in the chromatograms obtained at a wavelength of 206 nm to the calibration curve of the synthesized reference compound (Agharahimi and LeBel [1995]; Drinkwater et al. [1976]; Iyer et al. [2003]; Luo et al. [1992]).” for “information.”
as §8, §9
The flow rate was 0.6 ml/min and the gradient started with 100 % ultrapure water. After 1 min, the amount of acetonitrile was increased to 10 % and kept at that level for 1 min, after which the percentage of acetonitrile was increased to 35 % in 2.5 min and then increased to 100 % over 0.5 minute and kept at 100 % acetonitrile for another 1 min, and finally back to the starting conditions.

[2] = ref Barter et al. [2013], cited from earlier work
[3] = PBK prediction, ref Barter et al. [2013], cited from earlier work
[4] = formation from 1′-hydroxyestragole (oxidation), Chinese liver S9
[5] = formation from 1′-hydroxyestragole (oxidation), Chinese liver S9, listed as 1′-oxoestragole
[6] = formation from 1′-hydroxyestragole (oxidation), Caucasian liver S9
[7] = formation from 1′-hydroxyestragole (oxidation), Caucasian liver S9, listed as 1′-oxoestragole

Row | Structure (SMILES) | Catalytic efficiency (scaled V max / K m) (Chinese liver microsomes; scaled to liver) | Scaled V max (Chinese liver microsomes) | Catalytic efficiency (V max/K m × 1000) (Chinese liver microsomes) | K m (Chinese liver microsomes) | V max (Chinese liver microsomes) | Catalytic efficiency for formation of the metabolite, lower in Chinese than in Caucasian samples (Chinese liver microsomes; conversion of estragole) | V max for formation of the metabolite, lower in Chinese than in Caucasian samples (Chinese liver microsomes; conversion of estragole) | Catalytic efficiency (scaled V max / K m) [1] | Scaled V max [1] | Catalytic efficiency (V max/K m × 1000) [1] | K m [1] | V max [1] | also measured
1 | C=CC(=O)c1ccc(OC)cc1 [1′-Oxoestragole] |  |  |  |  |  |  |  |  |  |  |  |  | Catalytic efficiency (V max/K m × 1000) (Chinese liver S9; [4]): 4.5 µL/min/mg microsomal or S9 protein; K m (Chinese liver S9; [4]): 403 ± 137 µM; V max (Chinese liver S9; [4]): 1.82 ± 0.28 nmol /min/mg microsomal or S9 protein; K m (Chinese liver S9; [5]): 403 µM; V max (Chinese liver S9; [5]): 1.82 nmol /min/mg microsomal or S9; Catalytic efficiencies for formation of 1′-oxoestragole, Chinese versus Caucasian (Chinese liver S9; in vitro, oxidation of 1′-hydroxyestragole, liver S9): similar; Scaled V max (Chinese liver S9; oxidation of 1′-hydroxyestragole, Chinese, S9 protein yield 143 mg/(g tissue)): 15.6 µmol/h/g liver; Catalytic efficiency (scaled V max / K m) (Chinese liver S9; oxidation of 1′-hydroxyestragole, Chinese, scaled to liver): 38.7 µL/h/g liver; Scaled catalytic efficiencies for formation of 1′-oxoestragole, Chinese versus Caucasian (Chinese liver S9; scaled to liver, oxidation of 1′-hydroxyestragole): similar; Catalytic efficiency (V max/K m × 1000) (Caucasian liver S9; [6]): 5.4 µL/min/mg microsomal or S9 protein; K m (Caucasian liver S9; [6]): 521 ± 265 µM; V max (Caucasian liver S9; [6]): 2.8 ± 0.70 nmol /min/mg microsomal or S9 protein; K m (Caucasian liver S9; [7]): 521 µM; V max (Caucasian liver S9; [7]): 2.8 nmol /min/mg microsomal or S9; Scaled V max (Caucasian liver S9; oxidation of 1′-hydroxyestragole, Caucasian, S9 protein yield 143 mg/(g tissue)): 24.0 µmol/h/g liver; Catalytic efficiency (scaled V max / K m) (Caucasian liver S9; oxidation of 1′-hydroxyestragole, Caucasian, scaled to liver): 46.1 µL/h/g liver
2 | C=CCc1ccc(O)cc1 [4-Allylphenol] | 2.7 µL/h/g liver | 0.3 µmol/h/g liver | 1.3 µL/min/mg microsomal or S9 protein | 115 ± 24 µM | 0.15 ± 0.01 nmol /min/mg microsomal or S9 protein | 1.8 fold | 5.0 fold | 5.0 µL/h/g liver | 1.6 µmol/h/g liver | 2.4 µL/min/mg microsomal or S9 protein | 308 ± 71 µM | 0.74 ± 0.07 nmol /min/mg microsomal or S9 protein | 
3 | Cc1nnc2n1-c1ccc(Cl)cc1C(c1ccccc1)=NC2 [alprazolam] |  |  |  |  |  |  |  |  |  |  |  |  | Experimentally observed clearance, lower in Chinese individuals than in Caucasian volunteers ([2]; intravenous): 20%; Experimentally observed clearance, lower in Chinese individuals than in Caucasian volunteers ([2]; oral): 21%; Predicted clearance, lower in Chinese than in Caucasian subjects ([3]; intravenous): 21%; Predicted clearance, lower in Chinese than in Caucasian subjects ([3]; oral): 22%
4 | COc1ccc(/C=C/CO)cc1 [3′-Hydroxyanethole] | 1.5 µL/h/g liver | 0.7 µmol/h/g liver | 0.71 µL/min/mg microsomal or S9 protein | 450 ± 219 µM | 0.32 ± 0.07 nmol /min/mg microsomal or S9 protein | 3.2 fold | 3.1 fold | 4.8 µL/h/g liver | 2.1 µmol/h/g liver | 2.3 µL/min/mg microsomal or S9 protein | 429 ± 80 µM | 0.99 ± 0.08 nmol /min/mg microsomal or S9 protein | 
5 | CCCCNC(=O)NS(=O)(=O)c1ccc(C)cc1 [tolbutamide] |  |  |  |  |  |  |  |  |  |  |  |  | Experimentally observed clearance, lower in Chinese individuals than in Caucasian volunteers ([2]; route not stated): 2%; Predicted clearance, lower in Chinese than in Caucasian subjects ([3]; route not stated): 25%
6 | COc1ccc2[nH]c([S+]([O-])Cc3ncc(C)c(OC)c3C)nc2c1 (stereo not drawn) [omeprazole] |  |  |  |  |  |  |  |  |  |  |  |  | Experimentally observed clearance, lower in Chinese individuals than in Caucasian volunteers ([2]; route not stated): 75%; Predicted clearance, lower in Chinese than in Caucasian subjects ([3]; route not stated): 51%
7 | Cc1ncc2n1-c1ccc(Cl)cc1C(c1ccccc1F)=NC2 [midazolam] |  |  |  |  |  |  |  |  |  |  |  |  | Experimentally observed clearance, lower in Chinese individuals than in Caucasian volunteers ([2]; intravenous): 19%; Experimentally observed clearance, lower in Chinese individuals than in Caucasian volunteers ([2]; oral): 62%; Predicted clearance, lower in Chinese than in Caucasian subjects ([3]; intravenous): 24%; Predicted clearance, lower in Chinese than in Caucasian subjects ([3]; oral): 17%
8 | COc1ccc(CC2CO2)cc1 (stereo not drawn) [Estragole-2′,3′-oxide] | 5.5 µL/h/g liver | 0.9 µmol/h/g liver | 2.6 µL/min/mg microsomal or S9 protein | 161 ± 17 µM | 0.42 ± 0.01 nmol /min/mg microsomal or S9 protein | 4.9 fold | 4.4 fold | 26.6 µL/h/g liver | 3.9 µmol/h/g liver | 12.7 µL/min/mg microsomal or S9 protein | 146 ± 15 µM | 1.85 ± 0.06 nmol /min/mg microsomal or S9 protein | V max, lower in Chinese than in Caucasian liver incubations (Chinese liver microsomes; scaled kinetic constants (Table 3), conversion of estragole): fourfold; Scaled catalytic efficiency, lower for Chinese than Caucasian liver microsomes (Chinese liver microsomes; scaled to liver, conversion of estragole): fivefold
